A value given as a limit tells only on which side of the number the result lay.

Turning to `Nc1c(-c2ccc(O)cc2)nnn1-c1ccc(C(F)(F)F)cc1Cl`, the melting point was in the range of 161 to 162 °C.

The molecule `CCOC(=O)c1cn(C2CC2)c2cc(-n3cccc3)c(F)cc2c1=O` yielded a melting point of 216 to 219 °C.

As to `CCSc1nccc(C)c1N`, the melting point was in the range of 37 to 38 °C.

With `Cc1cccc(C2COc3cc(O)c(O)cc3C2)c1` (stereo unspecified), the melting point is 146 to 148 °C.

For the molecule `Cc1[nH]c2cccc(NC(=O)NCc3ccc(Br)cc3)c2c1C`, the melting point stood at 190 °C.

In turn, `Cc1c(C(=O)O)c(CC(=O)O)n(C)c1C(=O)c1ccc(Cl)cc1` came in with a melting point of 253 to 254 °C.

Regarding `CCOc1cc2ncc(C#N)c(Nc3ccc4c(c3)CCC4)c2cc1OCC`, the melting point lay in the range of 85 to 88 °C.

As for `O=C(O)c1cc(OCCCCCCc2cccc(OCc3ccccc3)c2OCc2ccccc2)ccc1O`, the melting point was in the range of 97 to 100 °C.

`CCC1(CC)c2cc(-c3nc4ccccc4s3)ccc2-c2ccc(N(c3ccc(Oc4ccc(N)cc4)cc3)c3ccc(Oc4ccc(N)cc4)cc3)cc21` showed a melting point of 192 to 194 °C.

For the molecule `Cc1nc2ccc(C(=O)NS(=O)(=O)c3ccccc3)nc2n1Cc1ccc(CCc2ccccc2)cc1Cl`, the melting point was in the range of 180 to 181 °C.

Take `O=C(O)c1cc(Br)cc2c1NCCC2C(=O)O` (stereo unspecified): the melting point is 238 to 239 °C.

`Cc1nccn1CC(C)C(=O)c1cn(C)c2ccccc12` (stereo unspecified): the melting point lay within 205 to 207 °C.

As to `Cc1ccc(COc2ccc(C(=O)NC[C@@H](C(=O)NO)N3CCCCC3)cc2)c2ccccc12`, the melting point was 123 °C.

Regarding `Cn1c(=O)c2nc(-c3ccc(/C=C/C(=O)O)cc3)[nH]c2n(Cc2cccc(C#N)c2)c1=O`, the melting point was > 300 °C.

On to `COc1ncnc(OC)c1NC(N)=S`, for which the melting point was determined as 210 °C.

As to `O=C(O)c1cn(-c2cccnc2)nc1Br`, the melting point lay in the range of 270 to 278 °C.

Take `Cc1n[nH]c2c(C(=O)NC3(C4CC4)CC3)c(NC(=O)c3cc(C(F)(F)F)nn3-c3ncccc3Cl)c(Cl)cc12`: the melting point lay within 228 to 229 °C.

In turn, `CCOc1cc2cc3c(Nc4cc(OC)c(Cl)cc4C)c(C#N)cnc3cc2cc1OCCN1CCOCC1` showed a melting point of 201 to 203 °C.

Turning to `N#Cc1ccc2c(c1)C(=O)OC2`, the melting point is 195 to 196 °C.

As to `CC(C(=O)O)c1ccc2c(c1)C(=O)c1ccccc1CN2C` (stereo unspecified), the melting point fell in the range of 155 to 158 °C.

In turn, `Cc1scc2c1N(C(=O)NCCN1CCC(CCCCN3CCCCC3)CC1)c1ccccc1NC2=O` displayed a melting point of 186 to 187 °C.

With `CC(C)(C)c1cc(S)n2ncnc2n1`, the melting point fell in the range of 285 to 286 °C.

Molecule `CC(=N)NC=Cc1ccc([N+](=O)[O-])cc1` returned a melting point of 142 to 143 °C.

On to `O=Cc1ccc(N(c2ccccc2)c2ccccc2)c2ccccc12`, for which the melting point was in the range of 107 to 110 °C.

Molecule `CCCNC(=O)Oc1ccc2c(ccn2N(CCC)c2ccncc2)c1` registered a melting point of 120 to 122 °C.

`Cc1ccc(-n2nc3c4cc(Cc5ccccc5)ccc4[nH]c(=O)n3c2=O)cc1`: the melting point came to 299 °C.

`Cc1cc(Cl)n2nc(SCc3ccccc3)nc2c1` showed a melting point of 108 to 110 °C.

On to `COC(=O)Nc1cccc(C)c1CNc1cccn2c(CO)c(C)nc12`, for which the melting point lay in the range of 170 to 172 °C.

Take `CCCCCC(O)C#CCCCCCCC#Cc1ccc(O)c(O)c1` (stereo unspecified): the melting point was in the range of 46 to 48 °C.

`NS(=O)(=O)c1cc2c(s1)S(=O)(=O)C(CCO)CN2` (stereo unspecified) came in with a melting point of 158 to 160 °C.

For the molecule `O=C(Nc1ccccc1)NC1CCN2CCc3ccccc3C2C1` (stereo unspecified), the melting point turned out to be 210 °C.

`COc1ccc(N2Cc3cnc(Nc4ccc(F)cc4)nc3N([C@@H](C)CO)C2=O)c(F)c1` gave a melting point of 173 to 177 °C.

`O=[N+]([O-])c1cc(F)c(-c2ccc(C(F)(F)F)cc2)cc1F` registered a melting point of 113 to 114 °C.

As to `NC(CO)(CO)CCc1ccc(C(=O)CCCCc2ccccc2)cc1`, the melting point lay in the range of 126 to 127 °C.

For `CC(=O)N(C(C)=O)c1cc2c(c(N(C(C)=O)C(C)=O)c1)OC(C(Cl)(Cl)Cl)OC2C(Cl)(Cl)Cl` (stereo unspecified), the melting point lay within 182 to 183 °C.

In the case of `C[C@H](NC(=O)c1c(CBr)c(-c2ccccc2)nc2ccccc12)C1CCCCC1`, the melting point lay in the range of 182 to 184 °C.

`OC1(c2ccc(Cl)cc2)CCN(CCCc2noc3cc(F)ccc23)CC1` gave a melting point of 142 to 145 °C.

For the molecule `CC(=O)N1CCN(c2ccc(Nc3nccc(-c4sc(-c5ccc(N6CCOCC6)cc5)nc4C)n3)cc2)CC1`, the melting point was in the range of 250 to 252 °C.

`C=C1CCC(C2OC(=O)NC2=O)CC1` (stereo unspecified) displayed a melting point of 63 to 64 °C.

`CC(=O)Nc1cc(C)cc(N)c1` displayed a melting point of 123 °C.

`CNC(=O)Oc1ccc2onc(NCCN3CCOCC3)c2c1` displayed a melting point of 135 to 136 °C.

In turn, `CCOC(=O)C1=C(C)N(C)C(C)=C(C(=O)OC(C)C)C1c1cccc([N+](=O)[O-])c1` (stereo unspecified) displayed a melting point of 100 to 101 °C.

In turn, `Nc1c([N+](=O)[O-])sc2c(F)cccc12` had a melting point of 238 to 240 °C.

`CCCCCc1cc2c(nc(O)n2CCCCS(C)(=O)=O)c(N)n1` registered a melting point of 188 to 189 °C.

Molecule `COC(=O)c1ccccc1NC(=O)Cc1ccccc1C` had a melting point of 80 to 82 °C.

For `Cc1cc(COc2ccc(S(=O)(=O)NC[C@@H](C(=O)NO)N3CCNCC3)cc2)c2ccccc2n1`, the melting point is 225 °C.

With `Nc1ccc(S(=O)(=O)c2cc(C3=CCCCC3)nc(N3CCCC3)c2)cc1`, the melting point was 237 to 238 °C.

Regarding `COc1cccc(Oc2ccc(CCNc3ncnc4nccnc34)cc2)n1`, the melting point lay within 152 to 153 °C.

`O=C1NCCc2c(NCc3ccccc3)cccc21` displayed a melting point of 142 to 144 °C.

Molecule `CC1C=C2CCCCCCCCCC=C2C1` (stereo unspecified) displayed a melting point of 98 to 103 °C.

In turn, `O=C(Nc1nccs1)c1nc(-c2ccc(CN3CCOCC3)cc2)[nH]c1-c1ccc(Cl)cc1` had a melting point of 253 to 255 °C.

With `Cc1c(C(=O)Nc2ccc(N3CCN(CCCc4cccnc4)CC3)c(C#N)c2)cnn1-c1ccc(Cl)cc1`, the melting point was 201 to 203 °C.

`CCCc1nc2c(N)nc3cc(OCCn4cccc4)ccc3c2s1`: the melting point was 158 to 160 °C.

With `CCCOc1ccc(CCCOc2ccc3c(c2)C=C(C(=O)O)CCS3(=O)=O)cc1`, the melting point was 168 to 170 °C.

With `CCOC(=O)[C@@H](CC(=O)c1ccc2ccccc2c1)NC(C)=O`, the melting point lay within 94 to 95 °C.

Consider `CCc1cccc(CC)c1NCC(=O)NN`, for which the melting point was in the range of 71 to 73 °C.

In the case of `O=C(NCCOc1cccnn1)C1Cc2ccccc2N1S(=O)(=O)c1ccc(-c2cccc(C(F)(F)F)c2)cc1` (stereo unspecified), the melting point was 65 to 71 °C.

`COc1ccccc1C1(O)C(O)CCC2CNCC21` (stereo unspecified) yielded a melting point of 168 °C.

For `CCCCCOC(=O)Cc1sc(F)c(N=c2sc(=O)n3n2CCCC3)c1Cl`, the melting point fell in the range of 39 to 41 °C.

In turn, `COc1ccc(-c2snnc2-c2ccccc2)cc1` registered a melting point of 56.5 to 58 °C.

On to `CCC12CCC(=O)C=C1c1c(cc(OCC#N)c(Cl)c1Cl)C2` (stereo unspecified), for which the melting point fell in the range of 171 to 172 °C.

For the molecule `OCC1CC(n2c(Cl)nc3cc(Cl)c(Cl)cc32)C(O)C1O` (stereo unspecified), the melting point lay in the range of 206 to 210 °C.

In turn, `O=Cc1cnc2sc3c(n12)CCCCCC3` had a melting point of 106 to 107 °C.

For the molecule `CN(CCc1ccccc1)C(=O)Cn1cc(CCC(=O)O)c2cc(OCc3ccccc3)ccc21`, the melting point was 122 to 125 °C.

On to `O=c1[nH]c2cc(Cl)c(S(=O)CCN3CCC(Cc4ccccc4)CC3)cc2o1` (stereo unspecified), for which the melting point is 190 to 192 °C.

The molecule `O=C(NCc1ccccn1)c1ccc(C=Cc2ccccc2OCc2ccccc2)cc1` displayed a melting point of 123 to 127 °C.

On to `CN(C)CCOc1ccc(CN2C(=O)C3(COc4cc5c(cc43)OCCO5)c3ccccc32)cc1` (stereo unspecified), for which the melting point lay within 77 to 79 °C.

With `CCOc1cc2c(c3c1OC(C)(C)C3)C(c1cccc(N3C(=O)NC(C)(C)C3=O)c1)=NC(C)(C)C2`, the melting point fell in the range of 237 to 238 °C.

The molecule `CC(=O)c1ccc(-c2ccc(OCc3ccc4ccccc4n3)cc2)c([N+](=O)[O-])c1` yielded a melting point of 160 to 162 °C.

Turning to `CCCOc1ccc(C(=O)CCC(=O)O)cc1`, the melting point was 116 to 117 °C.

In turn, `CC(C)Cn1c(CN2C(=O)c3ccccc3C2=O)c(-c2ccccc2)c2cc(OCc3ccccc3)ccc2c1=O` had a melting point of 113 to 114 °C.

Molecule `CC(C)(CO)NS(=O)(=O)c1cnc(NC(=O)c2cnn3c(C(F)(F)F)cc(-c4ccc(C(F)(F)F)cc4)nc23)s1` returned a melting point of 292 °C.

Take `CC(C)C[C@H](NC(=O)[C@H](Cc1c[nH]cn1)NC(=O)[C@H](Cc1cccc2ccccc12)NC(=O)OCc1ccccc1)[C@@H](O)CCO`: the melting point lay within 196 to 198 °C.

For `Cc1cc([N+](=O)[O-])c(C)cc1Cc1cccc(C(F)(F)F)c1`, the melting point is 75 to 77 °C.

The molecule `CCCNC(=S)NCCCn1c(CCOC)nc2c(N)nc3ccccc3c21` gave a melting point of 172 to 173 °C.

On to `Cc1cccc(NC(=O)NC2N=C(c3ccccc3)c3ccsc3N(C)C2=O)c1` (stereo unspecified), for which the melting point lay in the range of 128 to 130 °C.

As for `CCN(CC)CCCCC(=O)c1ccc2c(c1)Cc1cc(C(=O)CCCCN(CC)CC)ccc1-2`, the melting point lay within 78 to 80 °C.

`CC(Oc1cc(-c2nn(C)c(C(F)(F)F)c2Cl)c(F)cc1Cl)C(=O)O` (stereo unspecified) returned a melting point of 150 to 151 °C.

On to `O=C(Nc1ccc(-c2nc3ccccc3s2)cc1)c1ccccc1`, for which the melting point lay within 227 to 228 °C.

Take `Cc1c(F)cccc1Cc1c(-c2ccccc2)c2cccnn2c1C(=O)N1CCNCC1`: the melting point fell in the range of 140 to 142 °C.

In turn, `COC(=O)Cc1nc(-c2ccc(Cl)cc2)oc1Oc1cc(C)ccc1C` came in with a melting point of 113 °C.

In the case of `O=C1OCCC1N[C@@H](Cc1ccccc1)C(=O)OCc1ccccc1` (stereo partly specified), the melting point lay within 46 to 47 °C.

With `CC[C@H]1[C@H](O)CC(=O)N1c1ccc(C#N)c(Cl)c1`, the melting point fell in the range of 118 to 120 °C.

Molecule `COc1ccc(-c2c[nH]c3cc(OC)c(OC)cc3c2=O)cc1` gave a melting point of 310 to 311 °C.

For the molecule `CC12CC(=O)C3C(CCC4CC(O)CCC43C)C1CCC2C(=O)CCCl` (stereo unspecified), the melting point was in the range of 110 to 112 °C.

Molecule `CC(=O)N1CCc2c(c3ccc(-n4ccc(OCc5ccccc5)cc4=O)cc3n2C)C1` registered a melting point of 225 to 230 °C.

Source of the values: a melting point compilation (Tetko et al.; mined from patent text by program, amines drawn as free bases though some values may be those of a salt).
